Measured values as given in patent publication US12152030B2 (NOVOSTAR PHARMACEUTICALS, LTD., priority 2019, dated 2024).
Structures can show the parent of a compound that is named as a salt.

How the values were obtained:
[1] = target: MNK2 (Homo sapiens, UniProt Q9HBH9); test: KinomeScan, MNK2; type: binding
Source text: (§1) KinomeScan was used to determine the kinase selectivity of compound 2.

[2] = target: T1, GAK (Homo sapiens, UniProt O14976); test: KinomeScan, GAK; type: binding
T1 sequence (O14976 1-1311): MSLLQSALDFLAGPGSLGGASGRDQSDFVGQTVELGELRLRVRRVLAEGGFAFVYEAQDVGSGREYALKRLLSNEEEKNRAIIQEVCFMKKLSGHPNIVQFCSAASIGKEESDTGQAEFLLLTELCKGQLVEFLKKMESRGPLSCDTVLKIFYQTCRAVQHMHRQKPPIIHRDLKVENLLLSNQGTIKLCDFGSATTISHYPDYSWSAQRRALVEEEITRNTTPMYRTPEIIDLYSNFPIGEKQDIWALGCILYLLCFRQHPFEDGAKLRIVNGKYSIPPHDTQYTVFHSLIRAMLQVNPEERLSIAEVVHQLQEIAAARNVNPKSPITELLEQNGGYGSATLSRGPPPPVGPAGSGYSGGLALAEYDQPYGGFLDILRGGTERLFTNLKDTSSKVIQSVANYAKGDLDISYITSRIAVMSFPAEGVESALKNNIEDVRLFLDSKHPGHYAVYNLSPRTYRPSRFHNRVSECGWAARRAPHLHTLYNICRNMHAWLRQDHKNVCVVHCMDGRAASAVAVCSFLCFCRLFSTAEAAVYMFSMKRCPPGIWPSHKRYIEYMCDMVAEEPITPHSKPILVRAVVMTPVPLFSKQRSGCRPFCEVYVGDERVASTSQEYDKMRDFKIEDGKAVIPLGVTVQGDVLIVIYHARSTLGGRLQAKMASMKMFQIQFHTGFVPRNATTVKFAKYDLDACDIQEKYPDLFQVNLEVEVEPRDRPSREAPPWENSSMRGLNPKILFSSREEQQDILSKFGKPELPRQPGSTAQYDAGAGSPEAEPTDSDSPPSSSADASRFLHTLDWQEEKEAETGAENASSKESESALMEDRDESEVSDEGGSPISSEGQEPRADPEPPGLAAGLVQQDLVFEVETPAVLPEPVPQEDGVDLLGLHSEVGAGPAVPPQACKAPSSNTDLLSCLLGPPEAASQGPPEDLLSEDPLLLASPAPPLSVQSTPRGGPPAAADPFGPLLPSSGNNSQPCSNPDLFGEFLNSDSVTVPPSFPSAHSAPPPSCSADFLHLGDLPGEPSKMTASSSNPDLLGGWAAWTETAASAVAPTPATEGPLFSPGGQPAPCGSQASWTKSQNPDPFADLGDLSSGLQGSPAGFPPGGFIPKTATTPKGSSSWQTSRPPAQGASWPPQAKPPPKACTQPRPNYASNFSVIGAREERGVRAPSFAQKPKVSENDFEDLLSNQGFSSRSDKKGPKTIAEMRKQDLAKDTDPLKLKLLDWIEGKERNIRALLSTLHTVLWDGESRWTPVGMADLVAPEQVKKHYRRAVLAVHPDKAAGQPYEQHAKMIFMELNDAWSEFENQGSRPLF
Source text: as §1

[3] = tested on: Phosphorylated eIF4E; test: Intracellular peIF4E signaling assay; type: cell-based; details: 2 h; two hours incubation at 37° C.; read-out: peIF4E signaling cell assay IC50
Description: Phosphorylated eIF4E was determined using CisBio peIF4E assay kit (CisBio, catalog number 64EF4PEG). The cells were plated in a 96-well cell culture plate in a volume of 90 μL, and the number of cells per well was 5*10^4. The compounds (10×) were subjected to 3-fold serial dilution, added to the cell plate in a volume of 10 μL with the final DMSO concentration being 1%, and incubated at 37° C. for two hours. The cell plate was centrifuged at 300 g for 5 minutes, and the cell supernatant was carefully removed. The cell plate was immediately added with 50 μL of cell lysis buffer […] and incubated at 25° C. with shaking for at least 30 minutes. After homogenization by pipetting, 16 μL of cell lysate was transferred from the 96-well cell culture plate to a 384-well small-volume microwell plate. According to the kit instruction, an antibody mixture solution was prepared with a detection buffer, and was added in a volume of 4 μL to the 384-well small-volume microwell plate containing the cell lysate. The plate was covered with a plate sealer, incubated overnight at 25° C., and was read for fluorescence emission at two different wavelengths (665 nm and 615 nm) on the EnVision microplate reader counter. The emission ratio was imported into a GraphPadPrism software to fit the compound concentration (IC50) required for 50% inhibition of enzyme activity.
In this respect, IC50 values which are less than 0.05 μM were marked as “+++”, which are from 0.05 to 1.0 μM were marked as “++”, and which are greater than 1.0 and up to 100 μM were marked as “+”, and NA meant “not detected”.

[4] = target: T2, STK17A/DRAK1 (Homo sapiens, UniProt Q9UEE5); test: KinomeScan, DRAK1; type: binding
T2 sequence (Q9UEE5 1-414): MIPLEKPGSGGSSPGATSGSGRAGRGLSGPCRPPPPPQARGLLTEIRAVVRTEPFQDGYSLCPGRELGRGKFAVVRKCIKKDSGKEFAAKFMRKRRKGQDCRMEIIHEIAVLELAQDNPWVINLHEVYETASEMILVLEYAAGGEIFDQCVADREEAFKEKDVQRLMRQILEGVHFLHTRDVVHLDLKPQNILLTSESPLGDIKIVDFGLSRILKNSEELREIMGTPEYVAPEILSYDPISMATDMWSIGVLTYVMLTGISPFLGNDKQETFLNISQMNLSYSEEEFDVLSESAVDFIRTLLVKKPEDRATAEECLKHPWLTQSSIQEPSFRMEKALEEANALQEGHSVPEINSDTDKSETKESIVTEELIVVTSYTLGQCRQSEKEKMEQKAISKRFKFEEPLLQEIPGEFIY
Source text: as §1

Sequence of MNK2 (Q9HBH9 whole entry): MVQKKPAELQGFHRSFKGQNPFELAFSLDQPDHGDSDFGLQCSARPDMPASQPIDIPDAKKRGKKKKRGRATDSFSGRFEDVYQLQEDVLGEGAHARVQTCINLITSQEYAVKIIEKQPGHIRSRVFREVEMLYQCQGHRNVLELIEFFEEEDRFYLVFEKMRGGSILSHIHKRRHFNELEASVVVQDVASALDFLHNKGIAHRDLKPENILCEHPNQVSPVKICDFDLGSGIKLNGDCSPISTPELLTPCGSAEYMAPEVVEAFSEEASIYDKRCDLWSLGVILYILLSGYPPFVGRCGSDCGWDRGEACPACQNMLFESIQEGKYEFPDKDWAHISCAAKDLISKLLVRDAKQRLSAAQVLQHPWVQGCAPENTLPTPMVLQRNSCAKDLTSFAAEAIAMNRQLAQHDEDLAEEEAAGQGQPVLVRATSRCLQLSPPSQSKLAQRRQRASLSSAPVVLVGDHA

inhibition at 1 µM [1]: 99.5%
inhibition at 1 µM [2]: 97.8%
Kd ([2]; dose response analysis, read-out: Kd of interaction with GAK): 50 nM
IC50 [3]: < 50 nM
inhibition at 1 µM [4]: 62%
Kd ([4]; dose response analysis, read-out: Kd of interaction with DRAK1): 370 nM
SMILES: Cc1c2c(c(=O)n3c1C(=O)NC31CCCCC1)Nc1cc(N)ncc1C2 [Compound 2, 8′-amino-12′-methyl-6′,11′-dihydro-2′H-spiro[cyclohexane-1,3′-imidazole[1′,5′:1,6]pyrido[3,4-B][1,6]naphthyridine]-1′,5′-dione hydrochloride]
